Values after ≈ are worked out from the molar mass of the structure shown.
How the values were obtained:
P. acnes = test: MIC against planktonic P. acnes; type: cell-based, Propionibacterium acnes; conditions: Cutibacterium acnes; exponentially-growing planktonic bacteria, oxygen-free atmosphere; read-out: MIC (minimal inhibitory concentration)
Method: Serial dilutions of SBD.SE and SBD.FA were incubated with exponentially-growing planktonic P. acnes bacteria in oxygen-free atmosphere.
The MIC (minimal inhibitory concentration) for SBD.SE was determined to be about 30 μg/ml and for SBD.FA—about 60 μg/ml.

EpiOcular™ tissue = test: EpiOcular Eye Irritation Test (OCL-200-EIT); type: cell-based, human
Method: Also, the effect of SBD.SE on the epiocular system was investigated. Epiocular system consists of normal, human-derived epidermal keratinocytes, which have been cultured to form a stratified, squamous epithelium similar to that found in the cornea.
The effect of SBD.SE was assayed on the EpiOcular™ tissue, using the MatTek (Ashland, Mass.) EpiOcular™ Eye Irritation Test (OCL-200-EIT) protocol.
Based on the “depth of injury” model, the Epiocular EIT is intended to differentiate those materials that are non-irritants (would not require a warning label in the European chemical classification systems) from those that would require labeling as either GHS1 or 2. Consequentially, this test allows to distinguish those materials that would induce no damage or damage limited into the corneal epithelium from those that would damage/destroy the epithelium and continue damage into the stroma.
This protocol utilizes the MTT-based cytotoxicity readout as the experimental endpoint, and thus effectively measures the cytotoxicity of test materials. Biological duplicates are used for all calculations. SBD.SE was tested at 10% (100 mg/ml) in dimethyl isosorbide (DMI). The negative control was type I sterile water and the positive control was neat methyl acetate. The pre-incubation time I was 60 min., preincubation time II—overnight, treatment time—30 min., post-soak is 120 min, incubation time with MTT test was 3 h and the extraction was overnight. The extracted formazan was quantified with Molecular Devices microplate spectrophotometer MAX190 at 570 nm.
Tissue irritation is a common side effect of retinoids. It is mediated, at least in part, by retinoid interaction with retinoic acid receptors (RARs; Thacher S M, Vasudevan J, Chandraratna R A. Therapeutic applications for ligands of retinoid receptors. Curr Pharm Des. 2000 January; 6(1):25-58; Kambayashi H, Odake Y, Takada K, Funasaka Y, Ichihashi M, Kato S. N-retinoyl-D-glucosamine, a new retinoic acid agonist, mediates topical retinoid efficacy with no irritation on photoaged skin. Br J Dermatol. 2005 December; 153 Suppl 2:30-6).

[1] = DPPH assay (free radical scavenging); type: biochemical; conditions: 520 nm
From the text: The objective of this experiment was to determine the antioxidant capacity of SBD.SE, using DPPH assay methodology. DPPH (2,2-diphenyl-1-picrylhydrazyl) is a stable free radical. The principle of the DPPH assay uses the reduction of the DPPH radical (purple) to diphenylpicrylhydrazine (yellow) as an indication of free radical scavenging capacity of a given test material (Schenk, G. H., Swieczkowski, N. K., “Colorimetric determination of pyrogallol and 2,6-dimethoxyphenol with diphenylpicrylhydrazyl,” Talanta, 1971, 18:230-4). Following the incubation of a test agent with DPPH solution, a reduction in absorbance at 520 nm compared to control is indicative of DPPH-scavenging. The degree of DPPH scavenging activity is expressed as % water control.

C=C[C@@](C)(/C=C/c1ccc(OC(=O)c2ccccc2O)cc1)CCC=C(C)C [SBD.SE, Salicylic acid ester of bakuchiol]
MIC (P. acnes): ~30 µg/mL (≈ 79.7 µM) | irritation in reconstituted squamous epithelium model (EpiOcular™ tissue): no statistically significant irritation | classification in EpiOcular EIT (EpiOcular™ tissue; 10% (100 mg/ml) in DMI): non-irritant and non-cytotoxic | viability (% of water control) (EpiOcular™ tissue; SBD.SE 10% (100 mg/ml) in DMI, methyl acetate neat, 30 min treatment, MTT): over 60% | DPPH color (% Control) ([1]; 0.5 ug/ml): 86 % Control | DPPH color (% Control) ([1]; 2 ug/ml): 89 % Control | DPPH color (% Control) ([1]; 10 ug/ml): 59 % Control | DPPH color (% Control) ([1]; 16 ug/ml): 28 % Control | DPPH color (% Control) ([1]; 40 ug/ml): 6 % Control

Source: US10471035B2, “Compositions and methods for using esters of meroterpenes and of other resveratrol analogues” (Sunny BioDiscovery, priority 2014, dated 2019)
